What is called IC50 is the midpoint of a concentration-inhibition curve.

One assay deals with T1, human eIF4E protein (Homo sapiens, UniProt P06730).
T1 construct: purchased Novus NBP-45314
Nature of the assay: Biochemical competitive binding assay (TR-FRET competition, EDA-m7GDP-ATTO-647N probe). Particulars: read-out: hEIF4E TR-FRET IC50. As for the experimental part: The potencies of compounds binding to human eIF4E protein were measured using a 384-well time-resolved fluorescence resonance energy transfer (TR-FRET) competition assay. The assay was performed in assay buffer containing 50 mM HTEPES pH 7.5, 100 mM KCl, 0.02% Tween-20, and 0.1 mg/mL bovine serum albumin (BSA). The reaction volume was 10 μL and each reaction contained 4 nM recombinant 6×HIS-tagged human EIF4E protein (Novus, NBP-45314), 5 nM EDA-m7GDP-ATTO-647N (Jena Bioscience, NU-827-647N), 2.5 nM Europium conjugated Anti-6×HIS antibody (PerkinElmer, AD0402) and varying concentrations of compound. The final DMSO concentration was […].
Compounds were prepared using 11-point, 4-fold serial dilutions in DMSO and 100 nL of diluted compounds were transferred to 384-well assay-ready plates. Recombinant human EIF4E protein at 2× final concentration (8 nM) was pre-incubated with Eu-anti-6×HIS antibody at 2× final concentration (5 nM) for 5 minutes, then 5 μL of the protein solution was added to assay-ready plates. The protein/compound mix was incubated for 15 minutes, after which 5 μL of a solution containing EDA-m7GDP-ATTO-647N probe at 2× final concentration (10 nM) was added. After a subsequent 15-minute incubation, time-resolved fluorescence of assay plates was measured using a Clariostar Plus microplate reader (BMG Labtech) and TR-FRET values were calculated by taking a ratio of the 665 to 620 wavelength signals. After normalization to the average of DMSO control and maximum inhibition control wells, concentration-response data were plotted and standard 4-parameter curve fitting (PEI Signals) was utilized to determine IC50 values.
On the technique in general: Time-resolved FRET reads energy transfer from a long-lived donor to a nearby acceptor.

Assay [1] relates to COLO 205 colorectal tumor cells. Nature of the assay: Tumor cell viability inhibition assay (CellTiter-Glo 2.0, 72 hours). As to conditions: COLO 205 cell viability. In kind it is cell-based. As for the experimental part: The effect of compound treatment on COLO 205 tumor cell viability was assessed using cellular ATP quantification methods (Promega CellTiter-Glo® 2.0, G9241), as follows. Test compounds were prepared using 11-point, 4-fold serial dilutions in DMSO and 100 nL of diluted compounds were transferred to 384-well assay-ready plates. COLO 205 (ATCC, CCL-222) colorectal tumor cells were seeded to assay-ready plates in RPMI-1640 medium supplemented with 10% FBS at 1500 cells in a volume of 33.5 microliters per well. After 72 hours of compound treatment, cellular ATP was assessed by CellTiter-Glo® 2.0 Cell Viability Assay method, according to the manufacturer's instructions. Luminescence was measured using a Clariostar Plus microplate reader (BMG Labtech) or equivalent. After normalization to the average of DMSO control and maximum inhibition control wells, concentration-response data were plotted and standard 4-parameter curve fitting (PEI Signals) was utilized to determine IC50
(Cellular ATP, detected with luciferase, serves as a proxy for viable cell number.)

T1 sequence (P06730 whole entry): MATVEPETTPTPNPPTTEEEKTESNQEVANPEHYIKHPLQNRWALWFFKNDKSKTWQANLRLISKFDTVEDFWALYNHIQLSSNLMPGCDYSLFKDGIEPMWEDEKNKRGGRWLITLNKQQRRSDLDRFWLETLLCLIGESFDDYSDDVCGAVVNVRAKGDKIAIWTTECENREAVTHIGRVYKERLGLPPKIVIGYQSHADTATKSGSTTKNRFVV

As for `Cc1nc2c(c(=O)n1CC#Cc1ccc(Cl)cc1-c1ccnc3c(C(=O)O)csc13)C[C@H](N1CCC[C@@]3(C1)CC3(F)F)CC2` (single isomer, unassigned) [Compound 550, 7-(5-chloro-2-(3-(6-(1,1-difluoro-5-azaspiro[2.5]octan-5-yl)-2-methyl-4-oxo-5,6,7,8-tetrahydroquinazolin-3(4H)-yl)prop-1-yn-1-yl)phenyl)thieno[3,2-b]pyridine-3-carboxylic acid], the IC50 at human eIF4E protein is under 0.1 µM; in assay [1] (Homo sapiens, COLO 205, 72 h), under 5 µM.
In the same order, the values of `Cc1cc(-c2cc(Cl)ccc2OCCn2c(C)nc3c(c2=O)C[C@@H](N2CCC(c4ccccc4OC(F)(F)F)CC2)CC3)c2scc(C(=O)O)c2n1` (single isomer, unassigned) [Compound 572] are under 0.1 µM and under 5 µM.
In the same order, the values of `Cc1cc(-c2cc(Cl)ccc2OCCn2c(C)nc3c(c2=O)C[C@@H](N2CCC4(CC2)CC4(F)F)CC3)c2scc(C(=O)O)c2n1` (single isomer, unassigned) [Compound 391] are under 0.1 µM and under 5 µM.
On to `Cc1cc(-c2cc(Cl)ccc2OCCn2c(C)nc3c(c2=O)CC(N2CCC(OC(F)(F)F)CC2)CC3)c2scc(C(=O)O)c2n1` (single isomer, unassigned) [Compound 135], for which the IC50 at human eIF4E protein is under 0.1 µM; in assay [1] (Homo sapiens, COLO 205, 72 h), under 5 µM.
For `Cc1cc(-c2cc(Cl)ccc2OCCn2c(C)nc3c(c2=O)C[C@@H](N2CCC(OC(F)(F)F)CC2)[C@H]2C[C@@H]32)c2scc(C(=O)O)c2n1` (single isomer, unassigned) [Compound 598], the half-inhibitory concentration (IC50) was under 0.1 µM at human eIF4E protein and under 5 µM in assay [1] (Homo sapiens, COLO 205, 72 h).
In the same order, the values of `Cc1cc(-c2cc(Cl)ccc2OCCn2c(C)nc3c(c2=O)C[C@H](N2CCC(c4ccn(C)n4)CC2)CC3)c2scc(C(=O)O)c2n1` (single isomer, unassigned) [Compound 453] are under 0.1 µM and over 20 µM.
As for `Cc1cc(-c2cc(Cl)ccc2OCCn2c(C)nc3c(c2=O)CC(N2CCC(OC(F)(F)F)CC2)CC3)c2scc(C(=O)NS(C)(=O)=O)c2n1` (single isomer, unassigned) [Compound 105], the IC50 is under 0.1 µM on human eIF4E protein and under 5 µM in assay [1].
Turning to `Cc1cc(-c2cc(Cl)ccc2OCCn2c(C)nc3c(c2=O)C[C@@H](N2CC[C@@H](OC(F)(F)F)C2)CC3)c2scc(C(=O)O)c2n1` (single isomer, unassigned) [Compound 389], the half-inhibitory concentration (IC50) at human eIF4E protein is under 0.1 µM; in assay [1] (Homo sapiens, COLO 205, 72 h), under 5 µM.
As for `Cc1cc(-c2cc(Cl)ccc2OCCn2c(C)nc3c(c2=O)CC(N2CCC(c4ccc(F)cc4)CC2)CC3)c2scc(C(=O)O)c2n1` (stereo not shown) [Compound 132], the IC50 at human eIF4E protein is under 0.1 µM; in assay [1] (Homo sapiens, COLO 205, 72 h), under 5 µM.
As for `Cc1cc(-c2cc(Cl)ccc2OCCn2c(C)nc3c(c2=O)C[C@H](N2CCC[C@@H](OC(F)(F)F)C2)CC3)c2scc(C(=O)O)c2n1` (single isomer, unassigned) [Compound 471], the IC50 is under 0.1 µM at human eIF4E protein and under 5 µM in assay [1] (Homo sapiens, COLO 205, 72 h).
In the same order, the values of `CO[C@@H]1CCN([C@]2(C)CCc3nc(C)n(CCOc4ccc(Cl)cc4-c4cc(C)nc5c(C(=O)O)csc45)c(=O)c3C2)CC1(C)C` (single isomer, unassigned) [Compound 558] are 0.1 to 0.5 µM and 5 to 20 µM.
In the same order, the values of `Cc1cc(-c2cc(Cl)ccc2OCCn2c(C)nc3c(c2=O)C[C@@H](N2CCC[C@]4(C2)CC4(F)F)CC32CC2)c2scc(C(=O)O)c2n1` (single isomer, unassigned) [Compound 583] are under 0.1 µM and under 5 µM.
For `Cc1cc(-c2cc(Cl)ccc2OCCn2c(C)nc3c(c2=O)C[C@@H](N2CCC(N4CC(F)(F)C4)CC2)CC3)c2scc(C(=O)O)c2n1` (single isomer, unassigned) [Compound 110], the half-inhibitory concentration (IC50) on human eIF4E protein was under 0.1 µM; in assay [1] (Homo sapiens, COLO 205, 72 h), 5 to 20 µM.
In the same order, the values of `Cc1cc(-c2cc(Cl)ccc2OCCn2c(C)nc3c(c2=O)C[C@H](N2CC[C@H](C(F)F)C2)CC3)c2scc(C(=O)O)c2n1` (single isomer, unassigned) [Compound 122] are under 0.1 µM and under 5 µM.
Regarding `Cc1cc(-c2cc(Cl)ccc2OCCn2c(C)nc3c(c2=O)C[C@@H](N2CCC4(CC2)COCCO4)CC3)c2scc(C(=O)O)c2n1` (single isomer, unassigned) [Compound 425], the IC50 is under 0.1 µM at human eIF4E protein and 5 to 20 µM in assay [1] (Homo sapiens, COLO 205, 72 h).
As for `CO[C@H]1CCN([C@H]2CCc3nc(C)n(CCOc4ccc(Cl)cc4-c4cc(C)nc5c(C(=O)O)csc45)c(=O)c3C2)CC12CC2` (single isomer, unassigned) [Compound 522], the half-maximal inhibitory concentration (IC50) on human eIF4E protein was under 0.1 µM; in assay [1] (Homo sapiens, COLO 205, 72 h), under 5 µM.
In the same order, the values of `Cc1cc(-c2cc(Cl)ccc2OCCn2c(C)nc3c(c2=O)C[C@H](N2CCC(c4cnn(C)c4)CC2)CC3)c2scc(C(=O)O)c2n1` (single isomer, unassigned) [Compound 426] are under 0.1 µM and 5 to 20 µM.
In the same order, the values of `Cc1cc(-c2cc(Cl)ccc2OCCn2c(C)nc3c(c2=O)C[C@](C)(N2C[C@@H]4CC(F)(F)C[C@@H]4C2)CC3)c2scc(C(=O)O)c2n1` (stereo in doubt) [Compound 566] are under 0.1 µM and under 5 µM.
As for `Cc1cc(-c2cc(Cl)ccc2OCCn2c(C)nc3c(c2=O)CC(CN)(N2CCC(OC(F)(F)F)CC2)CC3)c2scc(C(=O)O)c2n1` (single isomer, unassigned) [Compound 622], the IC50 is under 0.1 µM on human eIF4E protein and over 20 µM in assay [1] (Homo sapiens, COLO 205, 72 h).
In the same order, the values of `Cc1cc(-c2cc(Cl)ccc2OCCn2c(C)nc3c(c2=O)C[C@@H](N2[C@@H]4CC[C@H]2C[C@H](OC(F)(F)F)C4)CC3)c2scc(C(=O)O)c2n1` (single isomer, unassigned) [Compound 397] are 0.1 to 0.5 µM and 5 to 20 µM.
In the same order, the values of `Cc1cc(-c2cc(Cl)ccc2OCCn2c(C)nc3c(c2=O)C[C@@H](N2CCCC[C@H]2C)CC3)c2scc(C(=O)O)c2n1` (single isomer, unassigned) [Compound 437] are under 0.1 µM and 5 to 20 µM.
Take `Cc1cc(-c2cc(Cl)ccc2OCCn2c(C)nc3c(c2=O)CC(CN)(N2CCC(OC(F)(F)F)CC2)CC3)c2scc(C(=O)O)c2n1` (single isomer, unassigned) [Compound 623]: the IC50 is 0.1 to 0.5 µM at human eIF4E protein and over 20 µM in assay [1].
`Cc1cc(-c2cc(Cl)ccc2OCCn2c(C)nc3c(c2=O)C[C@@H](N2CCC[C@H](c4ccn(C)n4)C2)CC3)c2scc(C(=O)O)c2n1` (single isomer, unassigned) [Compound 448]: the half-inhibitory concentration (IC50) at human eIF4E protein is under 0.1 µM; in assay [1] (Homo sapiens, COLO 205, 72 h), under 5 µM.
For the compound `Cc1cc(-c2cc(Cl)ccc2OCCn2c(C)nc3c(c2=O)CC(N2CC4CC(C2)C4(F)F)CC3)c2scc(C(=O)O)c2n1` (single isomer, unassigned) [Compound 361], the IC50 at human eIF4E protein was under 0.1 µM; in assay [1] (Homo sapiens, COLO 205, 72 h), under 5 µM.
In the same order, the values of `Cc1cc(-c2cc(Cl)ccc2OCCn2c(C)nc3c(c2=O)C[C@@H](N2CCC(c4ncn(C)n4)CC2)CC3)c2scc(C(=O)O)c2n1` (single isomer, unassigned) [Compound 463] are under 0.1 µM and under 5 µM.
For `Cc1cc(-c2cc(Cl)ccc2OCCn2c(C)nc3c(c2=O)C[C@H](NC24CC5CC(CC(C5)C2)C4)CC3)c2scc(C(=O)O)c2n1` (single isomer, unassigned) [Compound 412], the IC50 on human eIF4E protein was under 0.1 µM; in assay [1] (Homo sapiens, COLO 205, 72 h), under 5 µM.
On to `Cc1cc(-c2cc(Cl)ccc2OCCn2c(C)nc3c(c2=O)C[C@@H](N2CC[C@H](OC(F)(F)F)C(F)(F)C2)CC3)c2scc(C(=O)O)c2n1` (single isomer, unassigned) [Compound 406], for which the IC50 on human eIF4E protein was under 0.1 µM; in assay [1] (Homo sapiens, COLO 205, 72 h) it was 5 to 20 µM.
With `COc1cc(CN(C)C2CCc3nc(C)n(CCOc4ccc(Cl)cc4-c4cc(C)nc5c(C(=O)NS(C)(=O)=O)csc45)c(=O)c3C2)ccn1` (single isomer, unassigned) [Compound 220], the IC50 was under 0.1 µM on human eIF4E protein and under 5 µM in assay [1].
Take `Cc1cc(-c2cc(Cl)ccc2OCCn2c(C)nc3c(c2=O)C[C@H](N2CCCC[C@@H]2c2cccc(C(F)(F)F)c2)CC3)c2scc(C(=O)O)c2n1` (single isomer, unassigned) [Compound 590]: the 50% inhibitory concentration (IC50) at human eIF4E protein was 0.5 to 5 µM; in assay [1] (Homo sapiens, COLO 205, 72 h), over 20 µM.

The record behind these values is patent US20240246918A1, “COMPOUNDS AND COMPOSITIONS AS EIF4E INHIBITORS AND THE USES THEREOF” (Ribometrix, Inc., priority 2022, published 2024).
